Measured values from US20240002368A1 (QILU REGOR THERAPEUTICS INC., priority 2020, published 2024).
Read-outs that look alike come from different tables or passages of the source.

Key:
Trex1−/− mice = settings: given to Trex1−/− mice; cited from earlier work
STING pathway = experiment: IFN β reporter assay (HTRF, 2′3′-cGAMP-stimulated THP1 cells); assay type: cell-based, human
Experimental: STING pathway deactivation by the compounds described herein was measured using THP1 cells. The THP1 Cells (obtained from ATCC, Cat #TIB-202) were maintained in RPMI-1640 (Gibco, Cat #22400105), 10% FBS, 1% Pen-Strep, 0.05 mM 2-mercaptoethanol. For STING activation, 2′3′-cGAMP (MW 718.38, obtained from Invivogen) was used and prepared in serum-free RPMI-1640 media. Growth media: RPMI-1640 (HEPES, glutamine), 10% FBS, 1% Pen-Strep, 0.05 mM 2-mercaptoethanol. Assay media: RPMI-1640 (HEPES, glutamine), 0.5% FBS. 2′3′-cGAMP: Dissolve 2′3′-cGAMP to 10 mM stock in H2O.
The cells were prepared and seeded at 100K, 90 μL/well with assay media in cell culture plate (Greiner 655180). The compounds were added in 96-well tissue culture plates by Tecan D300e for a final concentration of 0.00137-3 μM.
Lipo2000/3000 and 2′3′-cGAMP stock solutions were diluted respectively in serum-free RPMI-1640 media. The diluted 2′3′-cGAMP and Lipo (V/V=1:1) were mixed and stood for 15 min at room temperature. 10 μL 2,3-cGAMP/Lipofectamine (10×) was transferred to the 96-well assay plate with a final 2′3′-cGAMP concentration of 5 μM. The cell plates were centrifuged at 1000 rpm for 5 min after incubating at 37° C., 5% CO2 overnight.
All reagents (human IFN beta kit, Cisbio 62HIFNBPEG) were warmed to room temperature for at least 30 min before the assay. The instructions of the kit were followed to prepare the detection media. 14 μL of cell supernatants was transferred into their dedicated wells in 384-well plate. Then 2 μL of the activation reagent solution and 4 μL of the mixed antibody solution were added to all wells. The plate was sealed and incubated for 3 h at room temperature.
The HTRF signal was read in Envision (PerkinElmer). IFN β reporter activity was then measured. The calculated ratio is the signal at 665 nm/signal at 615 nm. IC50 values are calculated by using standard methods known in the art.

[1] = Homo sapiens, THP-1, THP1 cells, 5 μM 2′3′-cGAMP, IFN β secretion inhibition, class symbols, read-out: IFN β reporter activity IC50
[2] = Homo sapiens, THP-1, read-out: IFN β reporter activity IC50

SMILES	IC50 (STING pathway; [1]) [nM]	also measured
CCN(CCO)CCCC(C)Nc1ccnc2cc(Cl)ccc12 (centres unmarked) [hydrochloroquine]	–	development of experimental autoimmune myocarditis (Trex1−/− mice): prevents
Cn1cc(C(=O)Nc2c[nH]c3ccc(F)cc23)c2cc(F)c(CN3CCC(F)CC3)cc21 [Example 102]	200 to 1000	–
CN1CCC(c2ccc3c(C(=O)Nc4c[nH]c5ccc(F)cc45)cn(C)c3c2)CC1 [Example 118]	> 1000	–
O=C(Nc1c[nH]c2ccc(F)cc12)c1n[nH]c2cc(OC(F)(F)F)ccc12 [Example 11]	200 to 1000	–
COCCOc1ccc2c(C(=O)Nc3c[nH]c4ccc(C#N)cc34)cn(C3CC3)c2n1 [Example 47]	–	IC50 (STING pathway; [2]): 200 to 1000 nM
CN1CC=C(c2ccc3c(C(=O)Nc4c[nH]c5ccc(F)cc45)cn(C)c3c2)CC1 [Example 117]	–	IC50 (STING pathway; [2]): > 1000 nM
O=C(Nc1c[nH]c2cccc(F)c12)c1n[nH]c2cc(C(F)(F)F)ccc12 [Example 26]	50 to 200	–
CN(C)Cc1cc2c(cc1F)c(C(=O)Nc1c[nH]c3ccc(F)cc13)cn2C [Example 94]	> 1000	–
COC(=O)c1ccc2[nH]cc(NC(=O)c3cn(C)c4cc(C(F)(F)F)ccc34)c2c1 [Example 33]	50 to 200	–
O=C(Nc1c[nH]c2ccccc12)c1n[nH]c2cc(C(F)(F)F)ccc12 [Example 2]	–	IC50 (STING pathway; THP1 cells, 5 μM 2′3′-cGAMP, IFN β secretion inhibition, class symbols, read-out: IFN β reporter activity IC50): 50 to 200 nM
O=C(Nc1c[nH]c2ccc(F)cc12)c1cn(C2CNC2)c2cc(C(F)(F)F)ccc12 [Example 113, 1-(azetidin-3-yl)-N-(5-fluoro-1H-indol-3-yl)-6-(trifluoromethyl)indole-3-carboxamide]	–	IC50 (STING pathway; [2]): > 1000 nM
Cn1cc(C(=O)Nc2c[nH]c3ccc(C#N)cc23)c2cc(Cl)c(C3=CCOCC3)cc21 [Example 55]	50 to 200	–
O=C(Nc1c[nH]c2cc(F)c(F)cc12)c1n[nH]c2cc(C(F)(F)F)ccc12 [Example 17]	< 50	–
Cn1cc(C(=O)Nc2c[nH]c3ccc(F)cc23)c2cc(F)c(CNCCC(F)(F)F)cc21 [Example 97, 5-fluoro-N-(5-fluoro-1H-indol-3-yl)-1-methyl-6-[(3,3,3-trifluoropropylamino)methyl]indole-3-carboxamide]	50 to 200	–
CN(C)Cc1ccc2[nH]cc(NC(=O)c3cn(C)c4cc(C(F)(F)F)ccc34)c2c1 [Example 111, N-(5-((dimethylamino)methyl)-1H-indol-3-yl)-1-methyl-6-(trifluoromethyl)-1H-indole-3-carboxamide]	> 1000	–
COC(=O)c1ccc2c(C(=O)Nc3c[nH]c4ccc(F)cc34)n[nH]c2c1 [Example 27]	> 1000	–
O=C(Nc1c[nH]c2cc(F)c(F)cc12)c1cc2ccccc2[nH]1 [Example 65]	< 50	–
O=C(Nc1c[nH]c2ccc(F)cc12)c1cn([C@H]2CCOC2)c2cc(C(F)(F)F)ccc12 [Example 77]	–	IC50 (STING pathway; [2]): 50 to 200 nM

SMILES	IC50 (STING pathway; [1]) [nM]	also measured
Cn1cc(C(=O)Nc2c[nH]c3ccc(P(C)(C)=O)cc23)c2ccc(C(F)(F)F)cc21 [Example 21]	> 1000	–
N#Cc1ccc2[nH]cc(NC(=O)c3cn(C4COC4)c4cc(C5=CCOCC5)c(F)cc34)c2c1 [Example 112, N-(5-cyano-1H-indol-3-yl)-6-(3,6-dihydro-2H-pyran-4-yl)-5-fluoro-1-(oxetan-3-yl)indole-3-carboxamide]	–	IC50 (STING pathway; [2]): 50 to 200 nM
O=C(Nc1c[nH]c2c(F)cccc12)c1n[nH]c2cc(C(F)(F)F)ccc12 [Example 6]	200 to 1000	–
Cn1cc(C(=O)Nc2c[nH]c3ccc(N4CCNCC4=O)cc23)c2ccc(C(F)(F)F)cc21 [Example 108, 1-methyl-N-[5-(2-oxopiperazin-1-yl)-1H-indol-3-yl]-6-(trifluoromethyl)indole-3-carboxamide]	> 1000	–
Cn1cc(C(=O)Nc2c[nH]c3ccc(F)cc23)c2ccc(OCC(F)(F)F)nc21 [Example 74]	50 to 200	–
Cn1cc(C(=O)Nc2c[nH]c3ccc(F)cc23)c2cc(F)c(CNCC(F)(F)F)cc21 [Example 91, 5-fluoro-N-(5-fluoro-1H-indol-3-yl)-1-methyl-6-[(2,2,2-trifluoroethylamino)methyl]indole-3-carboxamide]	50 to 200	–
Cn1cc(C(=O)Nc2c[nH]c3ccc(F)cc23)c2cc(F)c(CN3CCCCC3)cc21 [Example 99]	> 1000	–
O=C(Nc1c[nH]c2ccc(F)cc12)c1cnn2cc(Br)ccc12 [Example 24]	< 50	–
C[C@@H]1COCCN1c1cc2c(cc1F)c(C(=O)Nc1c[nH]c3ccc(F)cc13)cn2C [Example 50]	200 to 1000	–
C[C@@H](NCc1cc2c(cc1F)c(C(=O)Nc1c[nH]c3ccc(F)cc13)cn2C)C(F)(F)F [Example 105]	< 50	–
C[C@H](NCc1cc2c(cc1F)c(C(=O)Nc1c[nH]c3ccc(F)cc13)cn2C)C(F)(F)F [Example 104]	< 50	–
COc1ccc2[nH]cc(NC(=O)c3cn(C)c4cc(C(F)(F)F)ccc34)c2c1 [Example 51]	–	IC50 (STING pathway; [2]): 50 to 200 nM
Cn1cc(C(=O)Nc2c[nH]c3ccc(F)cc23)c2cc(F)c(CNCC(F)F)cc21 [Example 103]	50 to 200	–
CN(C(=O)c1n[nH]c2cc(C(F)(F)F)ccc12)c1c[nH]c2ccc(F)cc12 [Comparator E, reference compound]	–	IC50 (STING pathway; Homo sapiens, THP-1, THP1 cells, 5 μM 2′3′-cGAMP, IFN β secretion inhibition, numeric values (comparators), read-out: IFN β reporter activity IC50): 12000 nM
CN1CC=C(c2cc3c(cc2F)c(C(=O)Nc2c[nH]c4ccc(F)cc24)cn3C)CC1 [Example 115, 5-fluoro-N-(5-fluoro-1H-indol-3-yl)-1-methyl-6-(1-methyl-3,6-dihydro-2H-pyridin-4-yl)indole-3-carboxamide]	–	IC50 (STING pathway; [2]): > 1000 nM
Cn1cc(C(=O)Nc2c[nH]c3ccc(F)cc23)c2cc(F)c(CN3CCN(CC(F)(F)F)CC3)cc21 [Example 101]	50 to 200	–
CN1CCC(c2cc3c(cc2F)c(C(=O)Nc2c[nH]c4ccc(F)cc24)cn3C)CC1 [Example 116, 5-fluoro-N-(5-fluoro-1H-indol-3-yl)-1-methyl-6-(1-methyl-4-piperidyl)indole-3-carboxamide]	> 1000	–
